Source: patent US12371432B2, “Haloallylamine compounds and application thereof” (TransThera Sciences (Nanjing), Inc., priority 2019, dated 2025)
Where a name gives a salt, the structure may show the parent alone. Read-outs that look alike come from different tables or passages of the source. Blank lines part the entries; values can stand above or below the compound they belong to.

Tests used:
[1] = Rat blood-brain barrier evaluation; type: in vivo; details: rat, oral, SD rats, intragastric 10 mg/kg
Procedure: (1) Animal Administration and Sampling Method:
The study compound A1, the compound A41 and PXS-4728 were dissolved in normal saline to prepare solutions. The prepared solutions were separately administered by intragastric administration to SD rats at a dose of 10 mg/kg. […] At each time point, samples were collected from three SD rats.
On the day of the study, the animals were fixed to collect 0.15 mL of blood from the jugular vein at each set time point, and the whole blood samples were put into anticoagulation tubes containing EDTA-K2. After blood sampling was completed, heart perfusion was immediately performed for the animals, and following the heart perfusion, brain tissue samples were collected.
After the whole blood samples were centrifuged under the condition of 1,524 g for 10 min, top plasma samples were collected into sample tubes. The tissue samples were weighed, added with 20% of aqueous methanol solution at a weight-to-volume ratio of 1:5 (tissue:homogenate) and homogenized. The biological samples were stored at −40° C. to −20° C. for analysis.
(4) Sample Analysis Method:
(§1) Plasma sample: The samples to be tested were taken out of the refrigerator, naturally thawed at room temperature and then swirled for 5 min, and 20 μL of plasma sample was accurately pipetted into 1.5 mL centrifuge tubes. 100 μL of internal standard working solution (solution of 5 ng/mL verapamil and 50 ng/mL glibenclamide in acetonitrile) was added, and uniform mixing was performed. After 1 min of swirling, centrifugation was performed at 13,000 rpm for 8 min. 40 μL of supernate was accurately pipetted into a 96-well plate added with 160 μL water/well in advance. Uniform mixing was performed by swirling for 10 min, followed by LC-MS/MS assay.
as §1, with “Brain tissue” for “Plasma”, “50” for “20”, “250” for “100”, “30” for “40”, “150” for “160”
(5) Data Processing Method:
Analyst 1.6.2 from AB Sciex was used to output concentration results of tested compounds. Microsoft Excel was used to calculate parameters such as mean value, standard deviation and variation coefficient (excluding those outputted directly by Analyst 1.6.2).

[2] = biological target: T1, rhAOC1 (Homo sapiens, UniProt P19801); experiment: Selectivity against rhAOC1 enzyme (Biological Example 2); type: biochemical; details: Table 2; histamine substrate, Amplex Red/HRP
T1 construct: purchased R&D
T1 sequence (P19801 20-751): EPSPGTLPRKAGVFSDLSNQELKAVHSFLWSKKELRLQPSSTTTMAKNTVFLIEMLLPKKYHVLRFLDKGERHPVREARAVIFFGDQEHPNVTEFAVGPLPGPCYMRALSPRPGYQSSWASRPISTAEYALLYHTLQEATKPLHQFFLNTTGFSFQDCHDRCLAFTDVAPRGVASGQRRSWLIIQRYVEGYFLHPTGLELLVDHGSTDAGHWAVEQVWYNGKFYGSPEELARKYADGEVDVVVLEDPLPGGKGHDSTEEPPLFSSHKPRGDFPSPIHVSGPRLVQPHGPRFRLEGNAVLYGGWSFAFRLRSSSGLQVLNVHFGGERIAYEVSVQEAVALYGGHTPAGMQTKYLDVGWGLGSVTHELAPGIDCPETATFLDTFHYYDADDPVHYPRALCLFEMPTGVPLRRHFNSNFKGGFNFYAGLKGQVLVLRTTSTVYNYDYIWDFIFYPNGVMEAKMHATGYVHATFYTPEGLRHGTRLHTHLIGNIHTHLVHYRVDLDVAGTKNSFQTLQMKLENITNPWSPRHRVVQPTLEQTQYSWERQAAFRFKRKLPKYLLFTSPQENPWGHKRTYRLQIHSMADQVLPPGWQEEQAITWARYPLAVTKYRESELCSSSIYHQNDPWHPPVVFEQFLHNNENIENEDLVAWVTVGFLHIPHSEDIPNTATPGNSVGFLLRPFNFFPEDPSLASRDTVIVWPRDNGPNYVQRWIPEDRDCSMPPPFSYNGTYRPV
Procedure: 2. Selectivity of Compounds Against rhAOC1 Enzyme
(§2) (1) Instrument, Consumable and Reagent
Microplate reader (Perkin Elmer, Nivo 5S), black unclear-bottom 96-well plate (Corning) and rhAOC1 (R&D)
(§3) (2) Preparation of Concentration Gradient Compound Solutions
(§4) An appropriate amount of the compound to be tested was taken, dissolved in DMSO to 10 mM and then stored. Before the study, an appropriate amount of mother liquor of the 10 mM compound to be tested was taken and gradiently diluted 3-fold with DMSO, 10 concentration gradients in total. Each concentration gradient was then diluted 10-fold with 0.1 M of PBS.
(§5) (3) Preparation of Enzyme Solutions
An appropriate amount of rhAOC1 mother liquor with a concentration of 0.441 mg/mL was taken and diluted with an appropriate amount of 50 mM HEPES buffer solution to obtain enzyme solutions of 4× concentrations.
(§6) (4) Preparation of Substrate Mixtures of 2× Concentrations
An appropriate amount of histamine was weighed and dissolved with 50 mM of HEPES buffer solution to obtain 20 mM of histamine solution. The histamine solution was added with 2 mM of Amplex Red mother liquor and 500 U/mL of HRP mother liquor and diluted with 50 mM of HEPES buffer solution to obtain substrate mixtures of 2× concentrations.
(§7) 10 μL compound solutions of different concentrations, 25 μL rhAOC1 enzyme solutions of 4× concentrations and 15 μL of 50 mM HEPES buffer solution were first added into a 96-well plate, shaken to be mixed uniformly and then incubated at 37° C. for 30 min. 50 μL substrate mixtures of 2× concentrations were then added into each well, and the microplate reader was immediately used to detect fluorescence intensity of each well with 580 nm (20 nm) exciting light and 620 nm (10 nm) emission light for 5 min each time, 30 min in total. The inhibition rate was calculated according to the following formula: V (RFU/min)=(Ft (RFU)−F0 (RFU))/(time(min)) Inhibition rate (%)=100%−Vcmpd (RFU/min)/Vmax (RFU/min)×100%
(§8) V: fluorescence change rate; Ft: fluorescence reading at time point t; F0: initial fluorescence reading; Time: duration t; Vcmpd: fluorescence change rate of tested compound; Vmax: Max hole fluorescence change rate.
(§9) (6) Fitting of Dose-Response Curve
(§10) With the log value of concentration as the X axis and the percent inhibition rate as the Y axis, the log (inhibitor) vs. response-variable slope of analysis software GraphPad Prism 5 was used to fit a dose-response curve, thus obtaining the IC50 value of activity of each compound against the enzyme.

[3] = biological target: T2, rhVAP-1 (Homo sapiens, UniProt Q16853); experiment: Inhibitory activity against rhVAP-1 enzyme (Biological Example 2); type: biochemical; details: Table 2; benzylamine substrate, Amplex Red/HRP
T2 construct: purchased PeproTech
T2 sequence (Q16853 27-763 limits assumed): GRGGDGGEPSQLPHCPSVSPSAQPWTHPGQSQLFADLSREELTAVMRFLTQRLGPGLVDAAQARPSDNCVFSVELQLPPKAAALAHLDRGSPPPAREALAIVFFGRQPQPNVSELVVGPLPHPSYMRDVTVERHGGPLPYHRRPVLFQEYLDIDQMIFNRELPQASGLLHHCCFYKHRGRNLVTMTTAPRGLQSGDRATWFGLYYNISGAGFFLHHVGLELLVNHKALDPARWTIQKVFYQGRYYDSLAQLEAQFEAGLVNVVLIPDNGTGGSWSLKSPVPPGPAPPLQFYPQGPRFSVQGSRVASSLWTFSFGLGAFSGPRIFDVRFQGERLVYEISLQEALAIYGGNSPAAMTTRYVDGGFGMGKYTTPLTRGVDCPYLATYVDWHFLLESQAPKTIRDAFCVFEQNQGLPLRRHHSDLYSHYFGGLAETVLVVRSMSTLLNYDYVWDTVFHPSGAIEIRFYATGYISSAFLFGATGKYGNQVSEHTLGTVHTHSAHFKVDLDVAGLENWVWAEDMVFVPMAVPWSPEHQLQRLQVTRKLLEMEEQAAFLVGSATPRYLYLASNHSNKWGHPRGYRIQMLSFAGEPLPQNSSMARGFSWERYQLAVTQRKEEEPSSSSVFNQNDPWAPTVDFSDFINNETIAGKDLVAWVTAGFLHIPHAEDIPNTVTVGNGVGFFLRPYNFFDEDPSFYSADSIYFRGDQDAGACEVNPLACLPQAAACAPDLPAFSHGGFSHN
Procedure: 1. Inhibitory Activity of Compounds Against rhVAP-1 Enzyme
as §2
Microplate reader (Perkin Elmer, Nivo 5S), black unclear-bottom 96-well plate (Corning) and rhVAP-1 (PeproTech)
as §3
as §4, with “100-fold” for “10-fold”
as §5
An appropriate amount of protein diluent was added into rhVAP-1 powder, obtaining 1 mg/mL of mother liquor for storage. Before the study, PBS was used to carry out dilution to obtain enzyme solutions of 4× concentrations.
as §6
An appropriate amount of benzylamine was weighed and dissolved with PBS to obtain 200 mM of benzylamine solution. The benzylamine solution was added with 2 mM of Amplex Red mother liquor and 500 U/mL of HRP mother liquor and diluted with PBS to obtain substrate mixtures of 2× concentrations.
as §7, with “rhVAP-1” for “rhAOC1”, “PBS” for “50 mM HEPES buffer solution”, “perform detection” for “detect fluorescence intensity of each well”
as §8, §9, §10

concentration at 0.167 h ([1]; brain, 0.167 h, read-out: Average Brain tissue concentration (N=3)): 337 ng/g
concentration at 1 h ([1]; brain, 1 h, read-out: Average Brain tissue concentration (N=3)): 1400 ng/g
concentration at 6 h ([1]; brain, 6 h, read-out: Average Brain tissue concentration (N=3)): 311 ng/g
Kp at 0.167 h ([1]; brain/plasma, 0.167 h, read-out: Mean brain tissue/plasma concentration ratio): 0.89
Kp at 1 h ([1]; brain/plasma, 1 h, read-out: Mean brain tissue/plasma concentration ratio): 1.34
Kp at 6 h ([1]; brain/plasma, 6 h, read-out: Mean brain tissue/plasma concentration ratio): 1.89
concentration at 0.167 h ([1]; plasma, 0.167 h, read-out: Average Plasma concentration (N=3)): 373 ng/mL
concentration at 1 h ([1]; plasma, 1 h, read-out: Average Plasma concentration (N=3)): 1040 ng/mL
concentration at 6 h ([1]; plasma, 6 h, read-out: Average Plasma concentration (N=3)): 175 ng/mL
SMILES: CC(C)(C)NC(=O)c1ccc(OC/C(=C/F)CN)cc1 [PXS-4728, reference compound]

IC50 [2]: 13.4 µM
IC50 [3]: 0.096 µM
SMILES: NC/C(=C\F)Cn1ccc2cc(C(=O)N3CCCC3)ccc21 [Compound C7 hydrochloride, (E)-(1-(2-(aminomethyl)-3-fluoroallyl)-1H-indole-5-yl)(pyrrolidin-1-yl)methanone]

IC50 [2]: 8.58 µM
IC50 [3]: 0.083 µM
SMILES: CC(C)(C)NC(=O)c1ccn(C/C(=C/F)CN)c1 [Compound B12, (E)-1-(2-aminomethyl-3-fluoroallyl)-N-tert-butyl-1H-pyrrole-3-carboxamide]

IC50 [2]: 10.8 µM
IC50 [3]: 0.07 µM
SMILES: CN(C)C(=O)c1cnn(C/C(=C/F)CN)c1 [Compound B29, (E)-1-(2-(aminomethyl)-3-fluoroallyl)-N,N-dimethyl-1H-pyrazole-4-carboxamide]
